Results taken from US20030059451A1, “Use of orally administered dehydroepiandrosterone, precursors and derivatives thereof in order to improve the papery aspect of the skin” (priority 2000, published 2003).

Legend:
Assay type in all cases: in vivo, healthy volunteers (men and women)
[1] = test system: healthy volunteers, of both sexes, 60 to 80 years old; assay: Elasticity of the skin measured with the Derma Torque Meter, randomized double-blind study versus placebo; details: for Elasticity of the skin of the forearm (ratio of extensibility to recovery): ventral side of the forearm
Procedure: (§1) The evaluation was carried out using a randomized double-blind clinical study on 70 individuals (35 men and 35 women). The inclusion criteria were as follows: healthy volunteers, of both sexes, free of any severe pathological condition and 60 to 80 years old.
(§2) The treatment consisted, for 12 months, of a daily dose of 50 mg of DHEA, taken in the morning, in the form of a breakable tablet, for half the individuals, or as a placebo for the other half of the individuals.
The elasticity of the skin was evaluated with the Derma Torque Meter® (DTM® Dia-Stron Limited, Andover, Hampshire, United Kingdom). The biomechanical properties (elasticity) of the skin of the ventral side of the forearm is measured. The DTM® makes it possible to study the response of the skin to a deformation applied in the direction parallel to its surface. The rotation of a disk stuck to the skin is measured and the elasticity of the skin is thus evaluated, which is one of the best markers of aging (Escoffier C. et al. (1989), J. Invest. Dermatol., 93, 353-357).
The elasticity is expressed as the ratio of extensibility to recovery.
(§3) The statistical analysis is performed using the Wilcoxon test.

[2] = test system: healthy volunteers, of both sexes, 60 to 80 years old; assay: Clinical evaluation of the slackening of the skin, randomized double-blind study versus placebo; details: for Slackening of the skin of the forearm (clinical score 0 to 9): ventral side of the forearm
Procedure: as §1, §2
The slackening of the skin is evaluated clinically, blind, on the ventral side of the forearm and on the skin of the face at the start of treatment (T0) and at the end of treatment (T12), by the same clinician. The slackening of the skin is represented by a clinical score ranging from 0 (slight or hardly noticeable slackening) to 9 (very marked slackening). The statistical analysis is performed using the Wilcoxon test.

[3] = test system: healthy volunteers, of both sexes, 60 to 80 years old; assay: Clinical evaluation of the weathered (papyrus-like) appearance of the skin, randomized double-blind study versus placebo; details: 12 months; for variation in the weathered (papyrus-like) appearance relative to T0 (clinical score 0 to 9): back of a hand, 50 mg/day orally, FIG. 1
Procedure: as §1, §2
The weathered (papyrus-like) appearance is evaluated clinically, blind, on the back of a hand at the start of treatment (T0) and at the end of treatment (T12), by the same clinician.
The weathered (papyrus-like) appearance is represented by a clinical score ranging from 0 (weathered appearance absent or only very slightly noticeable) to 9 (very marked weathered appearance).
as §3

[4] = after treatment with DHEA administered orally, 50 mg/day, 12 months

## C[C@]12CC[C@H](O)CC1=CC[C@@H]1[C@@H]2CC[C@]2(C)C(=O)CC[C@@H]12 [DHEA, dehydroepiandrosterone]
[1]; T0 (start of treatment)
  Elasticity of the skin of the forearm (ratio of extensibility to recovery): 0.36
[1]; T12 (end of treatment), 50 mg/day orally, 12 months, Wilcoxon P = 0.55
  Elasticity of the skin of the forearm (ratio of extensibility to recovery): 0.31
[1]; [4]
  variation in the elasticity of the skin after treatment: do not significantly vary
[2]; T0 (start of treatment)
  Slackening of the skin of the face (clinical score 0 to 9): 6.69
  Slackening of the skin of the forearm (clinical score 0 to 9): 5.44
[2]; T12 (end of treatment), 50 mg/day orally, 12 months, Wilcoxon P = 0.5
  Slackening of the skin of the face (clinical score 0 to 9): 6.81
[2]; T12 (end of treatment), 50 mg/day orally, 12 months, Wilcoxon P = 0.15
  Slackening of the skin of the forearm (clinical score 0 to 9): 7.19
[2]; [4]
  variation in the slackening of the skin after treatment: do not significantly vary
[3]; group of men
  variation in the weathered (papyrus-like) appearance relative to T0 (clinical score 0 to 9): avoid this degradation
[3]; group of women, significant relative to placebo (p=0.005)
  variation in the weathered (papyrus-like) appearance relative to T0 (clinical score 0 to 9): decrease in the mean scores
[3]; overall conclusion, after oral administration, 50 mg/day
  effect on the weathered (papyrus-like) appearance of the skin: improves the weathered (papyrus-like) appearance of the skin
